The text below walks through data of ChEMBL document CHEMBL1201862, “PubChem BioAssay data set” (2004).

Assay [1] has as its target T1, Oxysterols receptor LXR-beta (Homo sapiens, UniProt P55055).
T1 sequence (P55055 whole entry): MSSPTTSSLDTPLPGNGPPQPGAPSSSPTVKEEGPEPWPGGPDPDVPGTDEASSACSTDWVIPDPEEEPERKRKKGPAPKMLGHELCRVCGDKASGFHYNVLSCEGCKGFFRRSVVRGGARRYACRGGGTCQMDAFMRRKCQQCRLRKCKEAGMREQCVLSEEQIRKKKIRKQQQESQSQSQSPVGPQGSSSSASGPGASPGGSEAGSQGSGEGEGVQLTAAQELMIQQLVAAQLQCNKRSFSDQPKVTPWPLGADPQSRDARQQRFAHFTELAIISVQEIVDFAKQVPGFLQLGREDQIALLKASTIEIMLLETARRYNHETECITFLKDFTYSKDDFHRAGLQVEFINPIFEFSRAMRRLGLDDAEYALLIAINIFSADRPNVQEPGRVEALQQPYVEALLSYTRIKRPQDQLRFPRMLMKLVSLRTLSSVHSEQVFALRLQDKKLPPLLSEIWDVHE
Briefly: LXR agonists, Gal4 luciferase reporter, dose response, counter-screen for ssDAF-12 agonist project, cell-based, luminescence, HEK293, S. stercoralis campaign (AID 720737). The note with it: read-out: IC50 (the source's name). It is filed as functional. On the technique in general: Reporter assays use an easily measured gene product as a stand-in for the process of interest.

The nature of assay [2]: Luminescence-based cell-based high throughput dose response assay to identify activators of the DAF-12 from the parasite S. stercoralis (ssDAF-12). It is filed as functional.
The target in assay [3] is Eukaryotic translation initiation factor 4E (Mus musculus, UniProt P63073). Put plainly: eIF4E–eIF4G protein interaction inhibitors, dose response, biochemical, TR-FRET (AID 855).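 Further: potency for disrupting eIF4E binding to eIF4GI seen as loss of FRET.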 It is filed as functional.
Assay [4] deals with T2, Tyrosine-protein phosphatase non-receptor type 7 (Homo sapiens, UniProt P35236).
T2 sequence (P35236 whole entry): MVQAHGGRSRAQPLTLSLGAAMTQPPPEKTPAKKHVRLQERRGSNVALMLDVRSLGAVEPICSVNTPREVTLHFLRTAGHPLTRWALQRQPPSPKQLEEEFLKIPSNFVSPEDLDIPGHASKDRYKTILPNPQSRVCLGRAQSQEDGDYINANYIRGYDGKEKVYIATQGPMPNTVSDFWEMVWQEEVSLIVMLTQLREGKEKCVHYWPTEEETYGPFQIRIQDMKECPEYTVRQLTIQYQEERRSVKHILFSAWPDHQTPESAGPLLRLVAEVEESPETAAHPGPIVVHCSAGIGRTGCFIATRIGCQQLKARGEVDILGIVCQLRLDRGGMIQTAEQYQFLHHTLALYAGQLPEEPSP
Put plainly: inhibitors of human HePTP phosphatase, […], biochemical, absorbance, leukemia target (AID 521). It is filed as functional.

The nature of assay [5]: cytotoxicity in OVCAR8 ovarian cancer cells, dose response, PAX8 project, cell-based, plate reader, dry powder samples (AID 743197). The note with it: OVCAR-8. It is filed as functional.
The nature of assay [6]: IGROV1 ovarian cancer cell cytotoxicity, dose response, PAX8 inhibitor project, plate reader, dry powder samples (AID 743043). The note with it: IGROV-1. In kind it is functional, cell-based.
The target in another assay is Paired box protein Pax-8 (Homo sapiens, UniProt Q06710). Briefly: inhibitors of PAX8-driven TPO luciferase reporter, dose response, RMG-I cells, cherry-pick (AID 687027).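 Further: luciferase reporter driven by Pax8 target thyroperoxidase promoter measured by SteadyGlo luminescence.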 In kind it is functional, cell-based.
A short description of assay [7]: NIH:OVCAR-3 ovarian cancer cell cytotoxicity, dose response, PAX8 inhibitor project, plate reader, dry powder samples (AID 743044). In kind it is functional, cell-based.
A short description of assay [8]: microbe, parasite or virus in culture. Conditions: Mycobacterium tuberculosis. In kind it is functional.
Assay [9] is described as follows: ADAM10 inhibitors, peptide cleavage, dose response, biochemical, QFRET (AID 743254).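 Further: ADAM10 enzyme with the DM2 quenched FRET peptide as substrate; EDANS fluorescence gain as the protease cuts the substrate; inhibitor potency against ADAM10 proteolytic activity.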
The nature of assay [10]: Luminescence Cell-Based Dose Retest to Confirm Inhibitors of Cancer Stem Cells. [Related pubchem assays (depositor defined):AID2717, AID2721]. The note with it: Homo sapiens. In kind it is functional.
Another assay deals with Kallikrein-7 (Homo sapiens, UniProt P49862). Briefly: Fluorescence Intensity-based biochemical primary high throughput dose response assay to identify activators of kallikrein-7 (K7) zymogen.
Assay [11] concerns the target 5-hydroxytryptamine receptor 1A (Homo sapiens, UniProt P08908). It is filed as functional.
Assay [12] is described as follows: Luminescence-based dose response cell-based high throughput screening assay for cytotoxic compounds using the IEC-6 intestinal epithelial cell line. [Related pubchem assays: 1858 (Summary AID.), 1825 (Counterscreen.), 1907 (Confirmation screen.)]. It is filed as functional. Background: The purpose of a counterscreen is to sort out artefacts and off-target activity.

Assay [13] in a line: cytotoxicity toward NIH3T3 fibroblasts, dose response, counter-screen, cell-based, ATP luminescence, mouse fibroblasts (AID 2010).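 Further: cells exposed to compound for about 90 hours before reading.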 In kind it is functional.
A short description of assay [14]: inhibitors of intracellular T. cruzi replication, confirmation, NIH3T3 host cells, beta-gal luminescence (AID 2044).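 Further: intracellular parasites grown in NIH/3T3 mouse fibroblasts as host cells; luminescent beta-galactosidase reporter signal from transgenic T. cruzi replicating inside host cells; inhibitors lower the luminescence signal.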 It is filed as functional, cell-based.
A short description of assay [15]: cytotoxicity in HEK-293T cells, dose response, cytotoxicity control for TCR NF-kB inhibitor project, luminescence, T-cell screen hits (AID 489026).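 Further: cells exposed to compound about 14 hours before the viability readout.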 In kind it is functional, cell-based.
Assay [16] can be described thus: cells.
The target in assay [17] is T3, Trace amine-associated receptor 1 (Homo sapiens, UniProt Q96RJ0).
T3 sequence (Q96RJ0 whole entry): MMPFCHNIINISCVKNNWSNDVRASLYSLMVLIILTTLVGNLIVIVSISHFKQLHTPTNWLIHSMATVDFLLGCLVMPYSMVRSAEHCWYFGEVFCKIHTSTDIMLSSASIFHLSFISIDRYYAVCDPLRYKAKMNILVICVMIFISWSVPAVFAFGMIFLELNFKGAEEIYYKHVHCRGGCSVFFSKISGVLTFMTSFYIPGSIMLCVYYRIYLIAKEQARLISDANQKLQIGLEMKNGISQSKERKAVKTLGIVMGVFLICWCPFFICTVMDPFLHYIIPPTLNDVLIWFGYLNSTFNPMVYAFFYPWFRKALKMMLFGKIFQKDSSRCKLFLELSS
Put plainly: Counterscreen for agonists of the human trace amine associated receptor 1 (hTAAR1): Fluorescence-based cell-based high throughput dose response assay to identify hTAAR1 agonist that also desensitize TAAR1 receptor response. It is filed as functional.

The target of assay [18] is T3, Trace amine-associated receptor 1. Put plainly: Fluorescence-based cell-based high throughput dose response assay to identify agonists of the human trace amine associated receptor 1 (TAAR1). In kind it is functional.
A short description of assay [19]: cells. In kind it is functional, cell-based.
Assay [20] can be described thus: cells. In kind it is functional, cell-based. This is another data set of the same source.
The target of a further assay is Transthyretin (Homo sapiens, UniProt P02766). Put plainly: Luminescence-based cell-based high throughput dose response assay to identify activators of Transthyretin (TTR) transcription. It is filed as functional.
The nature of assay [21]: non-specific cell cytotoxicity, dose response, cytotoxicity control for PAX8 inhibitor project, plate reader, dry powder samples (AID 743021). It is filed as functional, cell-based.
Assay [22] deals with Matrix metalloproteinase-14 (Homo sapiens, UniProt P50281). Put plainly: Dose Response confirmation of uHTS hits for a small molecule inhibitors of MT1-MMP activation in a fluorescence assay set 2. It is filed as functional.
Another assay deals with Troponin, cardiac muscle (Homo sapiens, UniProt P19429+P45379+P63316). Briefly: Fluorescence-based biochemical high throughput dose response assay for activators of the calcium sensitivity of cardiac Regulated Thin Filaments (RTF). [Related pubchem assays (depositor defined):AID493008, AID493018, AID504382, AID504383]. It is filed as protein-complex assay.
In assay [23] the target is Disintegrin and metalloproteinase domain-containing protein 17 (Homo sapiens, UniProt P78536). Briefly: ADAM17 protease inhibitors, dose response, counter-screen for ADAM10 exosite inhibitor project, biochemical, quenched FRET substrate (AID 743253).
Assay [24] is described as follows: A375 melanoma cell cytotoxicity, dose response, counter-screen for MITF inhibitor project, CellTiter-Glo luminescence, dry powder, set 2 (AID 624489).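 Further: actives are compounds lowering A375 viability meaning general cytotoxicity.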 It is filed as functional, cell-based. The note with it: A-375.
A short description of assay [25]: A375 melanoma cell viability loss, dose response, counter-screen for MITF inhibitor project, CellTiter-Glo luminescence, dry powder, set 4 (AID 624364).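 Further: A375 melanoma cells are MITF independent so this is a counter screen.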 Conditions: A-375. It is filed as functional, cell-based.
The subject of the next assay is Vero. Briefly: Vero cell toxicity, dose response, cytotoxicity control, plate reader, cherry-pick samples (AID 687020). It is filed as functional, cell-based. Conditions: Chlorocebus sabaeus.

The source made the active and inactive calls.

Sequence of Paired box protein Pax-8 (Q06710 whole entry): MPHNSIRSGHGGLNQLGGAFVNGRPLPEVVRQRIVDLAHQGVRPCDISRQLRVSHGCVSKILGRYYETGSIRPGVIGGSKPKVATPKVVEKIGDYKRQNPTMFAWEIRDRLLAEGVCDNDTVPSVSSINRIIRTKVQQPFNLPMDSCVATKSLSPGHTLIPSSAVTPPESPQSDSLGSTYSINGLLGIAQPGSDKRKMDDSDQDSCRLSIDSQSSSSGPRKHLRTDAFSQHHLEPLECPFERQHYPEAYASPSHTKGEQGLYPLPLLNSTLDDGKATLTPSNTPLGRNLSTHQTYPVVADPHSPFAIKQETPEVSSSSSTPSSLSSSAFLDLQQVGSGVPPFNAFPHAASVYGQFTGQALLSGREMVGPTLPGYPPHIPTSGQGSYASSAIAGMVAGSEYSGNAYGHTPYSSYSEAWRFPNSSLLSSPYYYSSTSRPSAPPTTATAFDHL
Sequence of Disintegrin and metalloproteinase domain-containing protein 17 (P78536 whole entry, the tested form may be a part): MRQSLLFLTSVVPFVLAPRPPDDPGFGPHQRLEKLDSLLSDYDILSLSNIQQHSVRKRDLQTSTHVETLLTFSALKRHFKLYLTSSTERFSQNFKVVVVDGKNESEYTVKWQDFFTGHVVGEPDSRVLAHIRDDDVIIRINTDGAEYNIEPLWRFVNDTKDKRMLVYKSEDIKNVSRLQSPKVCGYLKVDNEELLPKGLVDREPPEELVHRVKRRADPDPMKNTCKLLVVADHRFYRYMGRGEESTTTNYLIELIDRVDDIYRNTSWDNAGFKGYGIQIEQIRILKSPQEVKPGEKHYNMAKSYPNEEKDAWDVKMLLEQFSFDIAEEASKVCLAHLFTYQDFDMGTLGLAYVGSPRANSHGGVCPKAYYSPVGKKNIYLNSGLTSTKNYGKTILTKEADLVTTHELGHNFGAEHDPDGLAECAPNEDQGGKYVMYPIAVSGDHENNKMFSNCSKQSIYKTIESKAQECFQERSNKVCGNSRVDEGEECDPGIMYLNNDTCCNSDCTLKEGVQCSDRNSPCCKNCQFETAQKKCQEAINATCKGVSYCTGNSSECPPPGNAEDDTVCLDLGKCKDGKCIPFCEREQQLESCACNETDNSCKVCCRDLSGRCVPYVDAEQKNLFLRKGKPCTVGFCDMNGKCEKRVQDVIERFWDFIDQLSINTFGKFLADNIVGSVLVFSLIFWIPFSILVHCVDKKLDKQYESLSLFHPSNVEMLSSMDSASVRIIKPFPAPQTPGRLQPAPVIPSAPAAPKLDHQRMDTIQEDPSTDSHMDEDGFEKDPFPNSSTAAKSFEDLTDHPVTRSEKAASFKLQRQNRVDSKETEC
Sequence of 5-hydroxytryptamine receptor 1A (P08908 whole entry): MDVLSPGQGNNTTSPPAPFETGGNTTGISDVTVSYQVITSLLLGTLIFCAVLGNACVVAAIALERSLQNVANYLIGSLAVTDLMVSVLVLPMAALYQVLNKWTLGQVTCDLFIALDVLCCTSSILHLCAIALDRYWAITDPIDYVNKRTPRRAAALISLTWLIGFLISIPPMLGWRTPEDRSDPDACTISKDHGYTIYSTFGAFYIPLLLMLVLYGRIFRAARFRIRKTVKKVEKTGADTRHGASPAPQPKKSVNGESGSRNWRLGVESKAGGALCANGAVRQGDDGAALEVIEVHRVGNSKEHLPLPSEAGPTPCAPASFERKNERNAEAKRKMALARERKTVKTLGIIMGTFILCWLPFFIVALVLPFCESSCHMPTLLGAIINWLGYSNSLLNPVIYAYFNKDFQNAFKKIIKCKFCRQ
Sequence of Kallikrein-7 (P49862 whole entry): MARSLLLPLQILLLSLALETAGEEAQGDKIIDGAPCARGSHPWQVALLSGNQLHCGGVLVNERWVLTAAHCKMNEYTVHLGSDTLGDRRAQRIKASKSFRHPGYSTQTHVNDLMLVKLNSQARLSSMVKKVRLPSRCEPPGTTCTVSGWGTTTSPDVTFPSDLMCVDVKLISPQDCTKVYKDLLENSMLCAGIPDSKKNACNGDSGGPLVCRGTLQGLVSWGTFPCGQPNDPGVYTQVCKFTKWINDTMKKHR
Sequence of Eukaryotic translation initiation factor 4E (P63073 whole entry): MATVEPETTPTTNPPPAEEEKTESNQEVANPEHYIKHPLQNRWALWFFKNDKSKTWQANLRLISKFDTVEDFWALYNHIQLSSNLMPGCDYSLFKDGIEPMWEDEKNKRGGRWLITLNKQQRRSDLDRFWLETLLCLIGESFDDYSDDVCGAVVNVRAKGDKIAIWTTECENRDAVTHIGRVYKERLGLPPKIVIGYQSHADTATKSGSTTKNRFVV

A word on the IC50: it is the concentration that gives 50% inhibition. Regarding `Cc1ccc(/C=N/Nc2nnc(Cl)c3ccccc23)cc1`, the EC50 in [1] is > 67.5 µM (inactive). For the same compound, in assay [2], the IC50 was > 67.5 µM (inactive).
Regarding `NC(=O)c1c(NC(=O)CSc2nnc(-c3ccco3)n2-c2ccccc2)sc2c1CCC2`, the IC50 was > 64 µM (inactive) in assay [3] and 10.6 µM (active) in assay [4].
The term AC50 denotes the concentration at which the activity in the assay is half-maximal. As to `C[C@@H]1CN([C@H](C)CO)C(=O)c2cc(NC(=O)Nc3ccc4c(c3)OCO4)ccc2O[C@@H](C)CCCCO[C@H]1CN(C)Cc1ccc(C(F)(F)F)cc1`, the AC50 in assay [5] is > 60 µM (inactive); in assay [6], 12.8 µM (active); on Paired box protein Pax-8, 8.35 µM (active); in assay [7], 11.6 µM (active).
For the compound `O=[N+]([O-])c1cccnc1N1CCC(c2cc(-c3cccc(C(F)(F)F)c3)[nH]n2)CC1`, in assay [8], the CC50 was 28.7 µM (active). In addition, in [9], the IC50 was 12.7 µM (inactive). Moreover, the AC50 in [10] was 2.87 µM (active).
`COc1ccc(OC)c(/C=C/C(=O)N(C)CC(=O)Nc2ccc(N3CCOCC3)cc2)c1`: at Kallikrein-7, the EC50 is > 69.5 µM (inactive).
Take `CSc1nc2ccc(NC(=O)C3CCCO3)cc2s1` (configuration not stated): in assay [11], the EC50 was > 50 µM (not active).
Regarding `C[C@@H]1CN([C@H](C)CO)C(=O)c2cc(NS(=O)(=O)c3ccc(Cl)cc3)ccc2O[C@@H](C)CCCCO[C@H]1CN(C)S(=O)(=O)c1ccc(F)cc1`, the values for the AC50 (in [5]; in assay [6]; at Paired box protein Pax-8) were > 70 µM (inactive), 43.9 µM (active) and 2.46 µM (active), respectively.
On to `CCC(C)C(=O)N[C@@H](c1ccccc1)[C@@H](O)C(=O)O[C@H]1C[C@@]2(O)[C@@H](OC(=O)c3ccccc3)C3[C@](C)(C(=O)[C@H](OC(C)=O)C(=C1C)C2(C)C)[C@@H](O)C[C@H]1OC[C@@]31OC(C)=O` (some centres not stated), for which the IC50 in assay [12] is 0.244 µM (active); in assay [15], > 80 µM (inactive). Also, the EC50 in [13] was 6.26 µM (active); in assay [14] it was < 0.1 µM (active); in the assay “cells [16]” it was 0.025 µM (active).
Consider `CC1CN(c2nnnn2-c2ccccc2)CC(C)O1` (configuration not stated), for which the EC50 in assay [11] was > 50 µM (not active).
Regarding `c1ccc(Cc2cnc(N3CCNCC3)nc2)cc1`, the IC50 (in assay [17]; in “cells [20]”) was > 29.9 µM (inactive) throughout. Moreover, the values for the EC50 (in assay [18]; in “cells [19]”) were 7.24 µM (active) and > 29.9 µM (inactive), respectively.
Take `Cc1c(C(=O)N2CCc3ccccc32)cnn1C`: the EC50 at Transthyretin was > 167 µM (inactive).
As to `O=C(C[C@@H]1CC[C@H]2[C@@H](COC[C@@H](O)CN2Cc2cccc(F)c2)O1)NCC1CCCCC1`, the AC50 was 34 µM (active) at Paired box protein Pax-8 and 61.8 µM (active) in assay [21].
Turning to `Cc1c(C(=O)O)c(O)cc2c1C(=O)c1c(O)c([C@@H]3O[C@H](CO)[C@@H](O)[C@H](O)[C@H]3O)c(O)c(O)c1C2=O` [CARMINIC ACID], in assay [22], the IC50 was 19.5 µM (active).
For `CNC(=O)N(O)C1N(C)C(=O)N(CC(=O)OC)C1(C)C` (configuration not stated), the EC50 at Troponin, cardiac muscle is > 71.5 µM (inactive). Moreover, the IC50 in assay [4] is on record as > 100 µM (not active).
For `CCCCC[C@@H](C)N1C[C@@H](COCc2ccccc2)Oc2cc(N3CC[C@H](O)C3)ccc2S1(=O)=O`, the IC50 in assay [23] is > 69.5 µM (inactive); in [9], 11.3 µM (inactive).
As to `O=[N+]([O-])c1cccnc1N1CCC(c2cc(-c3cccc(C(F)(F)F)c3)n[nH]2)CC1`, the IC50 in assay [23] is > 69.5 µM (inactive).
For `O=C(NC1=C(N2CCCCC2)C(=O)c2ccccc2C1=O)c1ccc(Br)cc1`, the AC50 in assay [24] is 50.3 µM (active); in [25] it was > 70 µM (inactive).
As to `COc1cc(-c2cc(=O)c3c(O)c(OC)c(OC)cc3o2)cc(OC)c1O`, the IC50 in assay [22] was > 80 µM (inactive).
Consider `COc1ccccc1CCNS(=O)(=O)CCNC(=O)c1ccc2c(c1)OCO2`, for which the figures for the IC50 (in assay [17]; in “cells [20]”) were 6.62 µM (active) and > 29.9 µM (inactive), respectively. Also, the EC50 is 4.48 µM (active) in assay [18] and > 29.9 µM (inactive) in “cells [19]”.
For the compound `COc1ccc(C(=O)NC2CCCc3c2cnn3-c2cc(F)cc(F)c2)c(OC)c1OC` (configuration not stated), at Transthyretin, the EC50 is > 167 µM (inactive).
On to `COc1ccc(N2CCN(c3cc(C(=O)NC4CCCCC4)ncn3)CC2)cc1OC`, for which the AC50 in the assay on Vero is 29.7 µM (active).
Take `CCN1CCN(S(=O)(=O)c2ccc(Cl)c(C(=O)N(C)CCOc3ccc(Cl)cc3)c2)CC1`: the concentration at half-maximal activity (AC50) in the assay on Vero was 21.1 µM (active).
Regarding `CCN(CC)CCCCNC1=C(Nc2ccccc2)C(=O)c2ccccc2C1=O`, the AC50 in assay [24] and in assay [25] was > 70 µM (inactive) throughout.
